Assay results taken from US20170184612A1, “USE OF LEUKOCYTES AND NOVEL BIOMARKERS IN THE DIAGNOSIS, CONFIRMATION, AND TREATMENT OF A NEUROLOGICAL DISORDER” (The Trustees of Columbia University in the City of New York, priority 2014, published 2017).
Where a SMILES comes first, the peptide text is derived from it. The star is where a group is joined. Cbz = O=C(OCc1ccccc1)*; CH2F = FC*

Experiments:
[1] = system: peripheral blood mononuclear cells (PBMC), T cells; assay: ELISpot assay, IFNg and IL-5 reactivity combined, T cell response to α-syn epitopes; type: cell-based, human; settings: flag 1/0 per peptide
Method: Blood from age matched controls and PD patients were obtained and mononuclear cells were isolated by gradient centrifugation.
Release of the cytokines gamma-interferon, which measures activation of CD4+ and/or CD8+ T cells, and the interleukin, IL-5, which measures activation of CD4+ T cells was measured by ELISpot assay. […] After 22 hours of stimulation at 37 C, the cells were removed and release of cytokines was measured by colorimetric detection of spot-forming cells (SFC). Confirmed release of cytokine is determined by the presence of a minimum of 20 SFC per million cells.
The binding algorithms in SubAim 1 predict how well the peptides would bind to MHC if present, but not if they are present in patients. To determine this, the presence of T cell response against the candidate antigens by patient blood-derived peripheral blood mononuclear cells (PBMC) is assessed by ELISPOT assays upon stimulation with the peptides. This assay detects and quantifies cytokine release (in this case, IFNγ and IL-5) from specific activated T cells.
Data were obtained from blood samples (25 ml) from 44 PD patients and 24 age-matched controls. The experiments were conducted blindly. PBMCs from these samples were isolated and exposed to pools comprising the 122 candidate class I and class II antigens and phosphorylated S129 epitopes generated in Subaim 1. For the PBMCs responsive to the pooled peptides, the response was then deconvoluted to identify individual epitopes.
PMBC fractions are recovered by standard methods with Ficoll gradient and T cells expansion (Oseroff et al., 2010). The methods for the analysis of T cell reactions and measurement of cytokines production using the enzyme-linked immunosorbent spot (ELISPOT) assay are published in analogous experiments to discover antigens in multiple sclerosis (Lolli et al., 2013) and in hay fever allergens (Oseroff et al., 2010). T cell responses are determined by measuring IFNγ and IL-5 release by ELISPOT. Statistical analysis of differences between populations is expected to be non-parametric and analyzed with the U-Mann-Whitney test. If there were a normal distribution of response, which is a priori unlikely as some patients have no T cell response, with an SD=1, 8 patients per group would be required to provide a p>90% that the study detect a >2 fold difference at a two-sided 0.05 significance level.

[2] = system: peripheral blood mononuclear cells (PBMC), T cells; assay: ELISpot assay, IL-5 release (SFC) after stimulation with a-synuclein epitope pools; type: cell-based, human; settings: for IL-g Peptide + (donors positive to the peptide): of donors tested (peptide); for IL-g Peptide +: number of donors positive to the single peptide
In short: (§1)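 Ficoll-isolated PBMC from PD patients and age-matched controls were stimulated 22 h at 37 °C with pools of candidate α-syn class I/II and phospho-S129 epitopes, then deconvoluted to single epitopes in responders. IFNγ and IL-5 spot-forming cells were counted colorimetrically, with ≥20 SFC per million cells counted as a response.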

[3] = system: peripheral blood mononuclear cells (PBMC), T cells; assay: ELISpot assay, gamma-interferon release (SFC) after stimulation with a-synuclein epitope pools; type: cell-based, human; settings: for IFNg Peptide + (donors positive to the peptide): of donors tested (peptide); for IFNg Peptide +: number of donors positive to the single peptide
In short: as §1

VM DA (TH+) neurons = assay: OT-1 T cell cytotoxicity (killing) assay on VM DA neurons; type: cell-based, mouse; settings: neurons with IFN-γ, SIINFEKL and OT-1 cells
Method: OT-1 CD8^+ cell proliferation was assessed by BrdU incorporation. For OT-1 T cell cytotoxicity assays, DC and VM (from C57BL/6 and 56.129P2-B2mtm1Unc/J mice) cell cultures were incubated with neuronal medium or neuronal medium containing 100 ng/ml of IFN-γ (R&D Systems). Neurons were loaded with or without […] (SEQ ID NO: 9) peptide (1 μM), and, subsequently in vitro activated OT-1 cells were added at a density of 100,000 cells/well and co-incubated for 24 h.
We used the same conditions for VM cell cultures with microglial medium previously stimulated with LPS, NM or α-syn instead of IFN-γ. Neurons were pre-incubated with IFN-γ and […] (SEQ ID NO: 9) peptide as above, and then with: 1) a pan-caspase general inhibitor (Z-VAD-FMK, 20 μM, 24h, IMGENEX); 2) a specific granzyme/perforin inhibitor (concanamycin A, 100 nM, 24h, Sigma Aldrich); 3) a specific Fas/FasL antagonist (Kp7-6, 1 mM, 24h, EMD Biosciences) and 4) concanamycin A and Kp7-6 together. OT-1 cells were then added to the culture (100,000 cells/well) and maintained for 24 h.
Following immunocytochemical staining of VM neurons, we assessed the proportion of surviving DA (TH^+) and non-DA cells (MAP-2^+, TH^−). Total numbers of TH^+ and MAP-2^+ neurons were counted in 24 fields surrounding the border of the well at 20× magnification. The number of surviving TH+ neurons with an intact soma and two or more neurites equal to or greater than the diameter of the cell soma was counted and normalized to the number in untreated cultures.

[4] = Patients Summary, PD patients, single peptide
[5] = second 'Pool Stimulated' section (from r296), 12 donors tested
[6] = peptide + / donors tested (peptide), second 'Pool Stimulated' section (from r296), 12 donors tested
[7] = single peptide, second 'Pool Stimulated' section (from r296), 12 donors tested
[8] = Normals Summary, single peptide

| Compound | Peptides + in Patients & Normals [1] | IL-g Peptide + (donors positive to the peptide) ([2]; Patients Summary, PD patients) | IL-g Response Frequency [2, 4] [%] | IL-g Total SFC [2, 4] [SFC] | IL-g Peptide + [2, 5] | IL-g Response Frequency [2, 6] [%] | IL-g Total SFC [2, 7] [SFC] | IFNg Peptide + (donors positive to the peptide) ([3]; Patients Summary, PD patients) | IFNg Response Frequency [3, 4] [%] | IFNg Total SFC [3, 4] [SFC] | IFNg Peptide + [3, 5] | IFNg Response Frequency [3, 6] [%] | IFNg Total SFC [3, 7] [SFC] | other results |
| --- | --- | --- | --- | --- | --- | --- | --- | --- | --- | --- | --- | --- | --- | --- |
| 3521.0004 (KTKEGVLYV; listed as Homo sapiens) | 0 | 0 | 0 | 0 | 0 | 0 | 0 | 0 | 0 | 0 | 0 | 0 | 0 | – |
| 3521.007 (GVVAAAEKTK; listed as Homo sapiens) | 0 | 1 | 33 | 23 | 0 | 0 | 0 | 2 | 67 | 225 | 0 | 0 | 0 | IL-g Avg SFC [2, 4]: 23 SFC; IFNg Avg SFC [3, 4]: 113 SFC |
| 3521.008 (VAAAEKTKQGVAEAA; listed as Homo sapiens) | 0 | 0 | 0 | 0 | 0 | 0 | 0 | 1 | 33 | 150 | 0 | 0 | 0 | IFNg Avg SFC [3, 4]: 150 SFC |
| 3521.0012 (KTKQGVAEA; listed as Homo sapiens) | 0 | 0 | 0 | 0 | – | – | – | 0 | 0 | 0 | – | – | – | IL-g Peptide + (donors positive to the peptide) ([2]; Normals Summary): 0; IL-g Response Frequency [2, 8]: 0%; IL-g Total SFC [2, 8]: 0 SFC; IFNg Peptide + (donors positive to the peptide) ([3]; Normals Summary): 0; IFNg Response Frequency [3, 8]: 0%; IFNg Total SFC [3, 8]: 0 SFC |
| 3521.0016 (DVFMKGLSK; listed as Homo sapiens) | 0 | 0 | 0 | 0 | – | – | – | 0 | 0 | 0 | – | – | – | IL-g Peptide + (donors positive to the peptide) ([2]; Normals Summary): 1; IL-g Avg SFC [2, 8]: 180 SFC; IL-g Response Frequency [2, 8]: 100%; IL-g Total SFC [2, 8]: 780 SFC; IFNg Peptide + (donors positive to the peptide) ([3]; Normals Summary): 1; IFNg Avg SFC [3, 8]: 673 SFC; IFNg Response Frequency [3, 8]: 100%; IFNg Total SFC [3, 8]: 673 SFC |
| 3521.0017 (FMKGLSKAK; listed as Homo sapiens) | 0 | 0 | 0 | 0 | – | – | – | 0 | 0 | 0 | – | – | – | IL-g Peptide + (donors positive to the peptide) ([2]; Normals Summary): 0; IL-g Response Frequency [2, 8]: 0%; IL-g Total SFC [2, 8]: 0 SFC; IFNg Peptide + (donors positive to the peptide) ([3]; Normals Summary): 1; IFNg Avg SFC [3, 8]: 46.7 SFC; IFNg Response Frequency [3, 8]: 100%; IFNg Total SFC [3, 8]: 46.7 SFC |
| 3521.0043 (VFMKGLSKAK; listed as Homo sapiens) | 1 | 1 | 33 | 191 | 1 | 100 | 93.3 | 0 | 0 | 0 | 1 | 100 | 66.7 | IL-g Avg SFC [2, 4]: 191 SFC; IL-g Avg SFC [2, 7]: 93.3 SFC; IFNg Avg SFC [3, 7]: 66.7 SFC |
| 3521.0046 (FMKGLSKAKE; listed as Homo sapiens) | 0 | 0 | 0 | 0 | 0 | 0 | 0 | 0 | 0 | 0 | 0 | 0 | 0 | – |
| 3521.0052 (KTKQGVAEAA; listed as Homo sapiens) | 0 | 0 | 0 | 0 | 0 | 0 | 0 | 0 | 0 | 0 | 0 | 0 | 0 | – |
| 3521.0053 (KAKEGVVAAA; listed as Homo sapiens) | 0 | 0 | 0 | 0 | 0 | 0 | 0 | 0 | 0 | 0 | 0 | 0 | 0 | – |
| 3521.0066 (KAKEGVVAA; listed as Homo sapiens) | 0 | 0 | 0 | 0 | 0 | 0 | 0 | 0 | 0 | 0 | 0 | 0 | 0 | – |
| 3521.0074 (VAAAEKTKQGVAEAP; listed as Homo sapiens) | 0 | 0 | 0 | 0 | 0 | 0 | 0 | 1 | 33 | 67 | 0 | 0 | 0 | IFNg Avg SFC [3, 4]: 67 SFC |
| COC(=O)C[C@H](NC(=O)[C@H](C)NC(=O)[C@@H](NC(=O)OCc1ccccc1)C(C)C)C(=O)CF [Z-VAD-FMK] (Cbz-Val-Ala-Asp(OMe)-CH2F) | – | – | – | – | – | – | – | – | – | – | – | – | – | effect on CTL mediated neuronal death (VM DA (TH+) neurons): protect against CTL mediated neuronal death |
